What was measured:
Format in all cases: in vivo
[1] = system: Abutilon theophrasti (ABUTH); experiment: Biological Example 1A glasshouse assay, post-emergence application; settings: 312 h, 13 days after application, read-out: Percentage phytotoxicity ABUTH
Procedure: (§1) Seeds of a variety of test plant species were sown in standard soil ** in pots. After cultivation for one day (pre-emergence) or after 8 days cultivation (post-emergence) under controlled conditions in a glasshouse (at 24/16° C., day/night; 14 hours light; 65% humidity), the plants were sprayed with an aqueous spray solution derived from the formulation of the technical active ingredient (the test herbicide) in acetone/water (50:50) solution containing 0.5% Tween 20 (polyoxyethylene sorbitan monolaurate, CAS Reg. No. 9005-64-5). The test plants were then grown on under controlled conditions in a glasshouse (at 24/16° C., day/night; 14 hours light; 65% humidity) and watered twice daily. 13 Days after application of the test herbicide, for pre- and post-emergence, the test was evaluated visually for percentage phytotoxicity to each plant (where 100%=total damage to plant; 0%=no damage to plant). Generally, each test herbicide is only tested on 1 plant per plant species for each application rate tested and for each application timing. ** The “standard soil” in Biological Example 1 is usually a “sand” or “sandy loam” type of soil.
(§2) Dicotyledonous weeds: ABUTH=Abutilon theophrasti; AMARE=Amaranthus retroflexus. Grassy monocotyledonous weeds: SETFA=Setaria faberi; ALOMY=Alopecurus myosuroides; ECHCG=Echinochloa crus-galli; ZEAMX=Zea mays (corn, maize, e.g. volunteer corn). For Compound A16, the grassy monocotyledonous weed LOLPE (Lolium perenne) was used in the test insterad of ALOMY.

[2] = system: Amaranthus retroflexus (AMARE); experiment: as above; settings: 312 h, 13 days after application, read-out: Percentage phytotoxicity AMARE
Procedure: as §1, §2

[3] = system: Echinochloa crus-galli (ECHCG); experiment: as above; settings: 312 h, 13 days after application, read-out: Percentage phytotoxicity ECHCG
Procedure: as §1, §2

Lolium perenne (LOLPE) [4] = experiment: as above; settings: 13 days after application
Procedure: as §1, §2

Setaria faberi (SETFA) [5] = experiment: as above; settings: Setaria faberi, 312 h, post-emergence, 13 days after application, read-out: Percentage phytotoxicity SETFA
Procedure: as §1, §2

[6] = system: Zea mays (ZEAMX, corn, maize, e.g. volunteer corn); experiment: as above; settings: Zea mays, 312 h, post-emergence, 13 days after application, read-out: Percentage phytotoxicity ZEAMX
Procedure: as §1, §2

[7] = system: Abutilon theophrasti (ABUTH); experiment: Biological Example 1B glasshouse assay, pre-emergence application; settings: 250 g/ha, 13 days after application
Procedure: as §1, §2

[8] = system: Amaranthus retroflexus (AMARE); experiment: as above; settings: 250 g/ha, 13 days after application
Procedure: as §1, §2

[9] = system: Echinochloa crus-galli (ECHCG); experiment: as above; settings: 250 g/ha, 13 days after application
Procedure: as §1, §2

Lolium perenne (LOLPE) [10] = experiment: as above; settings: 250 g/ha, 13 days after application
Procedure: as §1, §2

Setaria faberi (SETFA) [11] = experiment: as above; settings: 250 g/ha, 13 days after application
Procedure: as §1, §2

[12] = system: Zea mays (ZEAMX, corn, maize, e.g. volunteer corn); experiment: as above; settings: 250 g/ha, 13 days after application
Procedure: as §1, §2

[13] = system: grassy (in particular warm climate grassy) monocotyledonous weeds; experiment: Post-emergence herbicidal activity, summary statements on Biological Examples 1 to 3; settings: applied at about 250 g/ha post-emergence; Biological Examples 1 and 2
Procedure: as §1
Seeds of a variety of monocotyledonous and dicotyledonous test plants are sown in standard soil in pots. The plants are cultivated for one day (for pre-emergence) or for about 12 days (range=10-13 days) (for post-emergence) under controlled conditions in a glasshouse (warm climate species at 24/18° C., cool climate species at 20/16° C., both at day/night; 16 hours light; 65% humidity). An “instant formulation”, known as the “IF50”, containing 50 g/litre (i.e. 5% w/v) of the “technical” (i.e. unformulated) active ingredient is prepared by dissolving the active ingredient in a mixture of organic solvents and emulsifier, details of which are provided in the Table below. […]
The test plants are then grown on, in a glasshouse (greenhouse) under controlled conditions (at either 24/18° C. or 20/16° C. (day/night) as mentioned above; 16 hours light; 65% humidity) and are watered twice daily. Either 14 or 15 days after application of the herbicide (14 or 15 DAA) (for post-emergence), or 20 days after application of the herbicide (20 DAA) (for pre-emergence), the test plants are evaluated visually, and an assessed percentage phytotoxicity score is given for each herbicidal application on each plant species (where 100%=total damage to plant; 0%=no damage to plant). […]

## CC#Cc1cc(F)c(C2C(=O)C3C(C2=O)[C@H]2CC[C@@H]3O2)c(OC)c1 (stereo partly shown) [Compound A16]
[1]; 30 g/ha
  pest or weed control at 30 g/ha: 0%
[1]; 250 g/ha
  pest or weed control at 250 g/ha: 70%
[2]; 30 g/ha
  pest or weed control at 30 g/ha: 0%
[2]; 250 g/ha
  pest or weed control at 250 g/ha: 10%
[3]; 30 g/ha
  pest or weed control at 30 g/ha: 90%
[3]; 250 g/ha
  pest or weed control at 250 g/ha: 100%
Lolium perenne (LOLPE) [4]; 30 g/ha
  Percentage phytotoxicity LOLPE: 70%
Lolium perenne (LOLPE) [4]; 250 g/ha
  Percentage phytotoxicity LOLPE: 90%
Setaria faberi (SETFA) [5]; 30 g/ha
  pest or weed control at 30 g/ha: 70%
Setaria faberi (SETFA) [5]; 250 g/ha
  pest or weed control at 250 g/ha: 90%
[6]; 30 g/ha
  pest or weed control at 30 g/ha: 90%
[6]; 250 g/ha
  pest or weed control at 250 g/ha: 100%
[7]
  Percentage phytotoxicity ABUTH: 0%
[8]
  Percentage phytotoxicity AMARE: 30%
[9]
  Percentage phytotoxicity ECHCG: 90%
Lolium perenne (LOLPE) [10]
  Percentage phytotoxicity LOLPE: 90%
Setaria faberi (SETFA) [11]
  Percentage phytotoxicity SETFA: 70%
[12]
  Percentage phytotoxicity ZEAMX: 90%
[13]
  post-emergent herbicidal potency against grassy monocotyledonous weeds (in words): potent post-emergent herbicides
